Measured values published in US7507748B2, “Substituted aryl-amine derivatives and methods of use” (Amgen Inc., priority 2004, dated 2009).

What follows are compounds tested on Human Umbilical Vein Endothelial cells (assay: VEGF-stimulated HUVEC proliferation assay). Conditions: 72 h, CyQuant, read-out: inhibited VEGF-stimulated HUVEC proliferation at a level.
Type: cell-based
Procedure: Human Umbilical Vein Endothelial cells are purchased from Clonetics, Inc., as cryopreserved cells harvested from a pool of donors. These cells, at passage 1, are thawed and expanded in EBM-2 complete medium, until passage 2 or 3. The cells are trypsinized, washed in DMEM+10% FBS+antibiotics, and spun at 1000 rpm for 10 min. Prior to centrifugation of the cells, a small amount is collected for a cell count. After centrifugation, the medium is discarded, and the cells are resuspended in the appropriate volume of DMEM+10% FBS+antibiotics to achieve a concentration of 3×10^5 cells/mL. Another cell count is performed to confirm the cell concentration. The cells are diluted to 3×10^4 cells/mL in DMEM+10% FBS+antibiotics, and 100 μL of cells are added to a 96-well plate. The cells are incubated at 37° C. for 22 h.
Prior to the completion of the incubation period, compound dilutions are prepared. Five-point, five-fold serial dilutions are prepared in DMSO, at concentrations 400-fold greater than the final concentrations desired. 2.5 μL of each compound dilution are diluted further in a total of 1 mL DMEM+10% FBS+antibiotics (400× dilution). Medium containing 0.25% DMSO is also prepared for the 0 μM compound sample. At the 22-hour timepoint, the medium is removed from the cells, and 100 μL of each compound dilution is added. The cells are incubated at 37° C. for 2-3 h.
During the compound pre-incubation period, the growth factors are diluted to the appropriate concentrations. Solutions of DMEM+10% FBS+antibiotics, containing either VEGF or bFGF at the following concentrations: 50, 10, 2, 0.4, 0.08, and 0 ng/mL are prepared. For the compound-treated cells, solutions of VEGF at 550 ng/mL or bFGF at 220 ng/mL for 50 ng/mL or 20 ng/mL final concentrations, respectively, are prepared since 10 μL of each will be added to the cells (110 μL final volume). At the appropriate time after adding the compounds, the growth factors are added. VEGF is added to one set of plates, while bFGF is added to another set of plates. For the growth factor control curves, the media on wells B4-G6 of plates 1 and 2 are replaced with media containing VEGF or bFGF at the varying concentrations (50-0 ng/mL). The cells are incubated at 37° C. for an additional 72 h.
At the completion of the 72 h incubation period, the medium is removed, and the cells are washed twice with PBS. After the second wash with PBS, the plates are tapped gently to remove excess PBS, and the cells are placed at −70° C. for at least 30 min. The cells are thawed and analyzed using the CyQuant fluorescent dye (Molecular Probes C-7026), following the manufacturer's recommendations. The plates are read on a Victor/Wallac 1420 workstation at 485 nm/530 nm (excitation/emission). Raw data are collected and analyzed using a 4-parameter fit equation in XLFit. IC50 values are then determined.
`Cc1nc2cc(NC(=O)c3cccnc3Nc3ccc4[nH]nnc4c3)ccc2s1` [Example 23, 2-(1H-Benzotriazol-5-ylamino)-N-(2-methyl-benzothiazol-5-yl)-nicotinamide] gave an IC50 of less than 1000 nM.
For `O=C1CSc2ccc(NC(=O)c3cccnc3Nc3ccc4ccncc4c3)cc2N1` [Example 55, 2-(isoquinolin-7-ylamino)-N-(3-oxo-3,4-dihydro-2H-1,4-benzothiazin-6-yl)nicotinamide], the IC50 was less than 1000 nM.
For `CCC(C)(C)c1ccc(NC(=O)c2cccnc2Nc2ccc3ccncc3c2)cc1` [Example 46, N-(4-(1,1-Dimethyl-propyl)-phenyl)-2-(isoquinolin-7-ylamino)-nicotinamide], the IC50 was less than 1000 nM.
`O=C(Nc1ccc(C(F)(F)F)cc1)c1cccnc1Nc1ccc2ccncc2c1` [Example 12, 2-(Isoquinolin-7-ylamino)-N-(4-trifluoromethyl-phenyl)-nicotinamide] gave an IC50 of less than 1000 nM.
With `CC1(C)CN(C(=O)[C@H]2CCCO2)Cc2cc(NC(=O)c3cccnc3Nc3ccc4ccncc4c3)ccc21` (stereo in doubt) [Example 74, N-[4,4-Dimethyl-2-(tetrahydro-furan-2-carbonyl)-1,2,3,4-tetrahydro-isoquinolin-7-yl]-2-(isoquinolin-7-ylamino)-nicotinamide] the IC50 was less than 1000 nM.
Work on `Cc1cc(NC(=O)c2cccnc2Nc2ccc3ccncc3c2)ccc1C(F)(F)C(F)(F)F` [Example 48, 2-(Isoquinolin-7-ylamino)-N-(3-methyl-4-pentafluoroethyl-phenyl)-nicotinamide] yielded an IC50 of less than 1000 nM.
Work on `CC1(C)CCNc2cc(NC(=O)c3ccccc3Nc3ccc4ccncc4c3)ccc21` [Example 28, N-(4,4-Dimethyl-1,2,3,4-tetrahydro-quinolin-7-yl)-2-(isoquinolin-7-ylamino)-benzamide] yielded an IC50 of less than 1000 nM.
For `CC(C)(C)c1cc(NC(=O)c2cccnc2Nc2ccc3ncncc3c2)on1` [Example 50, N-(3-tert-Butyl-isoxazol-5-yl)-2-(quinazolin-6-ylamino)-nicotinamide], the IC50 was less than 1000 nM.
`CC(C)(C)OC(=O)NCC(=O)N1Cc2cc(NC(=O)c3cccnc3Nc3ccc4ccncc4c3)ccc2C(C)(C)C1` [Example 73, [2-(7-{[2-(Isoquinolin-7-ylamino)-pyridine-3-carbonyl]-amino}-4,4-dimethyl-3,4-dihydro-1H-isoquinolin-2-yl)-2-oxo-ethyl]-carbamic acid tert-butyl ester] was tested, and the IC50 was less than 1000 nM.
`CC(C)(C)c1cc(NC(=O)c2cccnc2Nc2ccc3[nH]nnc3c2)no1` [Example 25, 2-(1H-benzo[d][1,2,3]triazol-5-ylamino)-N-(5-tert-butylisoxazol-3-yl)nicotinamide] gave an IC50 of less than 1000 nM.
Work on `CC(C)(C)c1ccc(NC(=O)c2cccnc2Nc2ccc3nc(N)nc(N)c3c2)cc1` [Example 66, 2-(2,4-diaminoquinazolin-6-ylamino)-N-(4-tert-butylphenyl)nicotinamide] yielded an IC50 of less than 1000 nM.
`CC(C)(C)c1cc(NC(=O)c2cccnc2Nc2ccc3ccncc3c2)no1` [Example 15, N-(5-tert-Butyl-isoxazol-3-yl)-2-(isoquinolin-7-ylamino)-nicotinamide] gave an IC50 of less than 1000 nM.
`CC1(C)CNCc2cc(NC(=O)c3cccnc3Nc3cnc4ccncc4c3)ccc21` [Example 37, N-(4,4-Dimethyl-1,2,3,4-tetrahydro-isoquinolin-7-yl)-2-([1,6]naphthyridin-3-ylamino)-nicotinamide] showed an IC50 of less than 1000 nM.
Work on `CC1(C)CN(C(=O)CN)Cc2cc(NC(=O)c3cccnc3Nc3ccc4ccncc4c3)ccc21` [Example 75, N-[2-(2-Amino-acetyl)-4,4-dimethyl-1,2,3,4-tetrahydro-isoquinolin-7-yl]-2-(isoquinolin-7-ylamino)-nicotinamide] yielded an IC50 of less than 1000 nM.
Compound `CC1(C)CC(=O)Nc2cc(NC(=O)c3cccnc3Nc3ccc4ccncc4c3)ccc21` [Example 54, N-(4,4-Dimethyl-2-oxo-1,2,3,4-tetrahydro-quinolin-7-yl)-2-(isoquinolin-7-ylamino)-nicotinamide] has an IC50 of less than 1000 nM.
Compound `O=C(Nc1ccc(OC(F)(F)F)cc1)c1cccnc1Nc1ccc2ccncc2c1` [Example 61, 2-(isoquinolin-7-ylamino)-N-(4-(trifluoromethoxy)phenyl)nicotinamide] has an IC50 of less than 1000 nM.
With `CC(C)(C)c1ccc(NC(=O)c2ccccc2Nc2ccc3ccncc3c2)cc1` [Example 27, N-(4-tert-Butyl-phenyl)-2-(isoquinolin-7-ylamino)-benzamide] the IC50 was less than 1000 nM.
In the case of `CC1(C)CNc2cc(NC(=O)c3cccnc3Nc3ccc4ccncc4c3)ccc21` [Example 32, N-(3,3-Dimethyl-2,3-dihydro-1H-indol-6-yl)-2-(isoquinolin-7-ylamino)-nicotinamide], the IC50 is reported as less than 1000 nM.
For `CC(C)(C)c1cc(NC(=O)c2cccnc2Nc2cccc3cnccc23)on1` [Example 71, N-(3-tert-butylisoxazol-5-yl)-2-(isoquinolin-5-ylamino)nicotinamide], the IC50 was less than 1000 nM.
With `CC1(C)CNCc2cc(NC(=O)c3cccnc3Nc3ccc4ncncc4c3)ccc21` [Example 51, N-(4,4-Dimethyl-1,2,3,4-tetrahydro-isoquinolin-7-yl)-2-(quinazolin-6-ylamino)-nicotinamide] the IC50 was less than 1000 nM.
Compound `CC1(C)CCNc2cc(NC(=O)c3ccccc3Nc3ccc4ncncc4c3)ccc21` [Example 30, N-(4,4-Dimethyl-1,2,3,4-tetrahydro-quinolin-7-yl)-2-(quinazolin-6-ylamino)-benzamide] has an IC50 of less than 1000 nM.
Work on `CC(C(=O)O)c1ccc(NC(=O)c2cccnc2Nc2ccc3ccncc3c2)cc1` (racemic) [Example 53, 2(R,S)-(4-{[2-(Isoquinolin-7-ylamino)-pyridine-3-carbonyl]-amino}-phenyl)-propionic acid] yielded an IC50 of less than 1000 nM.
In the case of `O=C(Nc1ccc(C(O)(C(F)(F)F)C(F)(F)F)cc1)c1cccnc1Nc1cnc2ccncc2c1` [Example 38, 2-([1,6]Naphthyridin-3-ylamino)-N-[4-(2,2,2-trifluoro-1-hydroxy-1-trifluoromethyl-ethyl)-phenyl]-nicotinamide], the IC50 is reported as less than 1000 nM.
In the case of `CC1(C)CNCc2cc(NC(=O)c3cccnc3Nc3ccc4c(c3)OC(F)(F)O4)ccc21` [Example 22, 2-(2,2-Difluoro-benzo[1,3]dioxol-5-ylamino)-N-(4,4-dimethyl-1,2,3,4-tetrahydro-isoquinolin-7-yl)-nicotinamide], the IC50 is reported as less than 1000 nM.
`CC(C)c1ccc(NC(=O)c2cccnc2Nc2ccc3ccncc3c2)cc1` [Example 44, N-(4-Isopropyl-phenyl)-2-(isoquinolin-7-ylamino)-nicotinamide] gave an IC50 of less than 1000 nM.
In the case of `CC1(C)CNCc2cc(NC(=O)c3ccccc3Nc3ccc4ccncc4n3)ccc21` [Example 77, N-(4,4-Dimethyl-1,2,3,4-tetrahydro-isoquinolin-7-yl)-2-([1,7]naphthyridin-2-ylamino)-benzamide], the IC50 is reported as less than 1000 nM.
`O=C(Nc1ccc(N2CCC2)cn1)c1cccnc1Nc1ccc2ccncc2c1` [Example 47, N-(5-Azetidin-1-yl-pyridin-2-yl)-2-(isoquinolin-7-ylamino)-nicotinamide] showed an IC50 of less than 1000 nM.
`O=C(Nc1ccc(Cl)c(C(F)(F)F)c1)c1cccnc1Nc1ccc2ccncc2c1` [Example 34, N-(4-Chloro-3-trifluoromethyl-phenyl)-2-(isoquinolin-7-ylamino)-nicotinamide] was tested, and the IC50 was less than 1000 nM.
With `CN1CCCC1COc1cc(NC(=O)c2cccnc2Nc2cccc3cnccc23)cc(C(F)(F)F)c1` (centres unmarked) [Example 68, 2-(Isoquinolin-5-ylamino)-N-[3-(1-methyl-pyrrolidin-2-ylmethoxy)-5-trifluoromethyl-phenyl]-nicotinamide] the IC50 was less than 1000 nM.
With `CC1(C)CCNc2cc(NC(=O)c3cccnc3Nc3ccc4ncncc4c3)ccc21` [Example 57, N-(4,4-Dimethyl-1,2,3,4-tetrahydro-quinolin-7-yl)-2-(quinazolin-6-ylamino)-nicotinamide] the IC50 was less than 1000 nM.
With `Cc1cc(NC(=O)c2cccnc2Nc2ccc3nc(N)ncc3c2)ccc1C(C)C` [Example 63, 2-(2-aminoquinazolin-6-ylamino)-N-(3-methyl-4-(1-methylethyl)phenyl)nicotinamide] the IC50 was less than 1000 nM.
`Cc1nc2cc(NC(=O)c3cccnc3Nc3ccc4ccncc4c3)ccc2s1` [Example 39, 2-(isoquinolin-7-ylamino)-N-(2-methyl-1,3-benzothiazol-5-yl)nicotinamide] was tested, and the IC50 was less than 1000 nM.
